Among the data in the kinase profiling compilation of Christmann-Franck et al. (2016) are kinase still bound, per cent of control values, retold here.

Common to all, as to assay: KINOMEscan competition binding
Holding throughout (conditions): compound 10.0 µM

Experiment [1] addresses CDK15 (human) (UniProt Q96Q40).
Experiment [2] concerns the target PIK3CA (human) (UniProt P42336).
In experiment [3] the target is PKN2 (human) (UniProt Q16513).
For experiment [4], the target named is CAMK4 (human) (UniProt Q16566).
For experiment [5], the target named is GSK3B (human) (UniProt P49841).
Experiment [6] has as its target DCLK2 (human) (UniProt Q8N568).
Experiment [7] has as its target SLK (human) (UniProt Q9H2G2).
The target of experiment [8] is NEK9 (human) (UniProt Q8TD19).
For experiment [9], the target named is AURKA (human) (UniProt O14965).
The target in experiment [10] is STK3 (human) (UniProt Q13188).
The target of experiment [11] is MST4 (human) (UniProt Q9P289).
Experiment [12] concerns the target JAK2 JH1 catalytic (human) (UniProt O60674).
Experiment [13] has as its target CDK9 (human) (UniProt P50750).
Experiment [14] deals with IRAK3 (human) (UniProt Q9Y616).
For experiment [15], the target named is MAP2K6 (human) (UniProt P52564).
The target in experiment [16] is PRKD2 (human) (UniProt Q9BZL6).
Experiment [17] has as its target TXK (human) (UniProt P42681).
Experiment [18] has as its target MAP2K1 (human) (UniProt Q02750).
The target of experiment [19] is BTK (human) (UniProt Q06187).
Experiment [20] deals with RET (human), P07949 [M918T].
Experiment [21] addresses PDGFRA (human) (UniProt P16234).
The test system of experiment [22] is ABL1 (human), P00519 [T315I].
The target in experiment [23] is RET (human) (UniProt P07949).
The target of experiment [24] is CHEK1 (human) (UniProt O14757).

Structures are written as SMILES.

Sequence of CDK15 (human) (Q96Q40 whole entry, looked up): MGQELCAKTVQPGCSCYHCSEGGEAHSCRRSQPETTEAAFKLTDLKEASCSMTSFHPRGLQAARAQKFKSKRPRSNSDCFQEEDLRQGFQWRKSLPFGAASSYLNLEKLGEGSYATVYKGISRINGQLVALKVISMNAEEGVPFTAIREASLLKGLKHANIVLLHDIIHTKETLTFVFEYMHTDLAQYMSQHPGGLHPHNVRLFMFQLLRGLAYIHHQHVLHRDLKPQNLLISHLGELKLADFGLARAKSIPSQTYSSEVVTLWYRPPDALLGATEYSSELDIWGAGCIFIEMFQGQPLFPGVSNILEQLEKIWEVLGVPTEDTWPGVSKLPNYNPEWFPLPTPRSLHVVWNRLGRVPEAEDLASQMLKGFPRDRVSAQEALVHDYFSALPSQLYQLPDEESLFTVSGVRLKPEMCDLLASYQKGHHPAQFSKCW
Sequence of SLK (human) (Q9H2G2 whole entry, looked up): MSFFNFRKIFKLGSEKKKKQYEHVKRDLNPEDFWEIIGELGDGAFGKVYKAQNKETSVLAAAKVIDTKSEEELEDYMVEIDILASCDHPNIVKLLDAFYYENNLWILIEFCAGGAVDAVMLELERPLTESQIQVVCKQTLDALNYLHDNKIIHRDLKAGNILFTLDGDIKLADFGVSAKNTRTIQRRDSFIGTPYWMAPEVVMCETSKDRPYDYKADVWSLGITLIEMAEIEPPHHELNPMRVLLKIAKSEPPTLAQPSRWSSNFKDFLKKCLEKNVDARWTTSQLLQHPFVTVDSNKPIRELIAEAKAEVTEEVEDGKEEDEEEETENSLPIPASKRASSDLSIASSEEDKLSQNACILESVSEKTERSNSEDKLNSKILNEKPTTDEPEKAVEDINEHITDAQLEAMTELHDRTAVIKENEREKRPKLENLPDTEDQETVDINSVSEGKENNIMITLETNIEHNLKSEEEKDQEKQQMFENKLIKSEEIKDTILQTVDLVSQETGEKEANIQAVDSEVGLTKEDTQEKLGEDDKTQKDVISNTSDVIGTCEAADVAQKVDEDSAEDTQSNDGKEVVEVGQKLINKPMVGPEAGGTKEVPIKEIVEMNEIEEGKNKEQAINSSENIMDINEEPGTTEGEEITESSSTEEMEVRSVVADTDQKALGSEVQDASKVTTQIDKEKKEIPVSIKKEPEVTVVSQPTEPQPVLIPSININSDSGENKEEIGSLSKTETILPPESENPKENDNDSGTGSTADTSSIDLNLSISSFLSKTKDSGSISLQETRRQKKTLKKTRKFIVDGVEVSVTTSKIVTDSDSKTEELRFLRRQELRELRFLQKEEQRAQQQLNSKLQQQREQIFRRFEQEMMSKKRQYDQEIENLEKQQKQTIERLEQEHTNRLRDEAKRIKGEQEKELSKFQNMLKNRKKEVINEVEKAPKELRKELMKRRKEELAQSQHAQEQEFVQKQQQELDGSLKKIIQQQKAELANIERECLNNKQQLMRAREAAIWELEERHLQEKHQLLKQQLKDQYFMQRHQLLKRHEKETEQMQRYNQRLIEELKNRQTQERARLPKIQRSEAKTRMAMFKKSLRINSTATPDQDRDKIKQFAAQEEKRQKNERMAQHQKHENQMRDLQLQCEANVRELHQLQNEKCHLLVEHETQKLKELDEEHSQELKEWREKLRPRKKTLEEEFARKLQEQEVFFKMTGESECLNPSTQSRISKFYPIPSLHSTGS
Sequence of STK3 (human) (Q13188 whole entry, looked up): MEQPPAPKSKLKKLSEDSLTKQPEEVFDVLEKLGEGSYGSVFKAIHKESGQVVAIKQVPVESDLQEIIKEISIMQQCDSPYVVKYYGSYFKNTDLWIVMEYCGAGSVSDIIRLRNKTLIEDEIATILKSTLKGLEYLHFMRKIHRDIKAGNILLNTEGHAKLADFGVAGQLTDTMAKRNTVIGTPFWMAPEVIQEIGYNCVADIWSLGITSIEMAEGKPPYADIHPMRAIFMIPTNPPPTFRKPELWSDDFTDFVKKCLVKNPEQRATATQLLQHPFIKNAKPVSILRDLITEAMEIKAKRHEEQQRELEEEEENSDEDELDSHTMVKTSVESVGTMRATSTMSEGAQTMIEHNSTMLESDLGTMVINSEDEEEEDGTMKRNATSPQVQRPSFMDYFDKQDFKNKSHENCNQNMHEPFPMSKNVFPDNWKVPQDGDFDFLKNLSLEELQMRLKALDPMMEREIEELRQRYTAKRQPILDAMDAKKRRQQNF
Sequence of PDGFRA (human) (P16234 whole entry, looked up): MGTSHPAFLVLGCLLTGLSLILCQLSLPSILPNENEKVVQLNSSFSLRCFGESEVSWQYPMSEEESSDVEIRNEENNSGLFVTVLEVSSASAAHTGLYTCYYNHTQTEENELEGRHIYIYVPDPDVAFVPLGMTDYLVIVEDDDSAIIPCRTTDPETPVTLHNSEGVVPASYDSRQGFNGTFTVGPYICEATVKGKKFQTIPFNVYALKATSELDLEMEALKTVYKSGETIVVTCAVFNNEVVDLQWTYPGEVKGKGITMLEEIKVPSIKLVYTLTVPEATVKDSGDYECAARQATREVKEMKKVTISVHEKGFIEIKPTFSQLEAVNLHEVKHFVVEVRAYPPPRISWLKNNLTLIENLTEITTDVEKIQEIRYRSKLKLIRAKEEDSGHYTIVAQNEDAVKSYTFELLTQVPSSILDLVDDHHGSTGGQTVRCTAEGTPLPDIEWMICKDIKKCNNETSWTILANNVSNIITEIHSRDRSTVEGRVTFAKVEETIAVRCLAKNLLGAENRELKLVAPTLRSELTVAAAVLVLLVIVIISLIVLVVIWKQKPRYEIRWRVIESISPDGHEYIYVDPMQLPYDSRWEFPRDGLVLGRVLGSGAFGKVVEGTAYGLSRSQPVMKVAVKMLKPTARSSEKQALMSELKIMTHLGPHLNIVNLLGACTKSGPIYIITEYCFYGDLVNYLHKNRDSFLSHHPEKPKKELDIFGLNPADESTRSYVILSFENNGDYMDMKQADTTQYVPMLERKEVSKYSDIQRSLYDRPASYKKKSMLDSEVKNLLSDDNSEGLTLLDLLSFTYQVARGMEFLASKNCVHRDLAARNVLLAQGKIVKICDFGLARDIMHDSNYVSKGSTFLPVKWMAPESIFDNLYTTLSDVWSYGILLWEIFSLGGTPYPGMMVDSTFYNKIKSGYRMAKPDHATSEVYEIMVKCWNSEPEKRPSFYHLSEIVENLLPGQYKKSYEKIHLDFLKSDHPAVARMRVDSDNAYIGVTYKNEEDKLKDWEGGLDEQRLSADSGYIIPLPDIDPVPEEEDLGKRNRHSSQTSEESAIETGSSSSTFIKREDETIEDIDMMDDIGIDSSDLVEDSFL
Sequence of PRKD2 (human) (Q9BZL6 whole entry, looked up): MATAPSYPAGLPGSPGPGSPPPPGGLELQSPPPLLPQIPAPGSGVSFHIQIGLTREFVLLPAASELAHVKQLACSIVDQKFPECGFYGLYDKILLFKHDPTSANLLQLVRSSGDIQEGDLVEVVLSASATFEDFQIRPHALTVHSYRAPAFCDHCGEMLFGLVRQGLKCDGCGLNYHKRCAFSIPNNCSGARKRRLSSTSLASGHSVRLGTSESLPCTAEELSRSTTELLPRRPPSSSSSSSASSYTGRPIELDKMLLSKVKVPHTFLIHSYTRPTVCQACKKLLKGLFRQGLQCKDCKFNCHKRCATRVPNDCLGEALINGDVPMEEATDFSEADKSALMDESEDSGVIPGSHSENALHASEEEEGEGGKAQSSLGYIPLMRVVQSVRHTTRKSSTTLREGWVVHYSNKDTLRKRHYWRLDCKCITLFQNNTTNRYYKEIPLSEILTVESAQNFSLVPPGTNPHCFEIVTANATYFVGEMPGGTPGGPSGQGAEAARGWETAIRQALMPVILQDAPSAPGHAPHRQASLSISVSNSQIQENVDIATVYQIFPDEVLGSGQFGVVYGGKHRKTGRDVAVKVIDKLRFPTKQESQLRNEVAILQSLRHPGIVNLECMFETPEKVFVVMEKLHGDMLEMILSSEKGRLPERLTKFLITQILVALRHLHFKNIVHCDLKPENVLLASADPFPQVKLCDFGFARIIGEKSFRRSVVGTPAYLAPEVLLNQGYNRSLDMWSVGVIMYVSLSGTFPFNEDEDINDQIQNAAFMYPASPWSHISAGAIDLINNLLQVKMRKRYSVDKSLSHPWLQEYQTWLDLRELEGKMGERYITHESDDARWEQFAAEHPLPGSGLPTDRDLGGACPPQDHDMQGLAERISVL
Sequence of CHEK1 (human) (O14757 whole entry, looked up): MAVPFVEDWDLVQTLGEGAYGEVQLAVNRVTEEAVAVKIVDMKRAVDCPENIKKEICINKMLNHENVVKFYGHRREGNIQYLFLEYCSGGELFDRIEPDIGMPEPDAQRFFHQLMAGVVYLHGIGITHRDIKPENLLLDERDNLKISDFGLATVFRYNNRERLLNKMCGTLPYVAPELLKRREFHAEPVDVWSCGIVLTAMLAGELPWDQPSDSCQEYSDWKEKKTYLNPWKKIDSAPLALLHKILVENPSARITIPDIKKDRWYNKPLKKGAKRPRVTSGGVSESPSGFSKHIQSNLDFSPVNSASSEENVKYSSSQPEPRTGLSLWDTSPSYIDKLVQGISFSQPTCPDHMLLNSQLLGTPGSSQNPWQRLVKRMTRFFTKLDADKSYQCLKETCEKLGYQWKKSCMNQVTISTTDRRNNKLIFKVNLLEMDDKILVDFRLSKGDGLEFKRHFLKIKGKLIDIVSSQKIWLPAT
Sequence of CAMK4 (human) (Q16566 whole entry, looked up): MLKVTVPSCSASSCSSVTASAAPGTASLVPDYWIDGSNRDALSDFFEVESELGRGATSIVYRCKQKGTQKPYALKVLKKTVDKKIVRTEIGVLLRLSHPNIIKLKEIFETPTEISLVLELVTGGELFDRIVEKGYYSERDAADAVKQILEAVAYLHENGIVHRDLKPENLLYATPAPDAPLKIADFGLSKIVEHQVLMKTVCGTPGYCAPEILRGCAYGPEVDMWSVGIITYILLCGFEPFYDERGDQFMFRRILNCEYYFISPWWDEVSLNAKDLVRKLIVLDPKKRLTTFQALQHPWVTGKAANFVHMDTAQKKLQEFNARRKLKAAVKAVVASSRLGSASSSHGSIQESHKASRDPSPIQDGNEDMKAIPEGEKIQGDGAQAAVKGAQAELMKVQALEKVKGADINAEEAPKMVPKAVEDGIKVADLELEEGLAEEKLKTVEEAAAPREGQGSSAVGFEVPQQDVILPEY

On to `N=C1NC(=O)/C(=C/c2ccc(-c3ccccc3O)o2)S1`, for which the kinase still bound, per cent of control in experiment [1] worked out at 34%.
As for `N=C1NC(=O)/C(=C/c2ccc(-c3ccc(C(N)=O)cc3O)o2)S1`, the values for the kinase still bound, per cent of control in experiment [2], in experiment [3] and in experiment [1] were 9.2%, 31% and 13%, respectively.
For the compound `N=C1NC(=O)/C(=C/c2ccc(-c3csc4ccccc34)o2)S1`, the kinase still bound, per cent of control in experiment [4] is 25%; in [5] it was 12%.
With `CN1C(=O)[C@H]2CCC[C@H]2N(C2CCCC2)c2nc(Nc3ccc(C(N)=O)cc3)ncc21`, the kinase still bound, per cent of control is 18% in experiment [6], 3.4% in experiment [7], 8.9% in experiment [8] and 7.6% in experiment [9].
Take `CS(=O)(=O)Nc1ccc(-c2cncc(/C=C3\SC(=N)NC3=O)c2)cc1`: the kinase still bound, per cent of control in [7] is 2.8%; in experiment [10], 17%.
With `N=C1NC(=O)/C(=C/c2ccc(-c3ccc(F)cc3O)o2)S1`, the kinase still bound, per cent of control in experiment [11] was 32%; in experiment [1], 9.4%.
For `Nc1cccc(-c2cc(/C=C3\SC(=O)NC3=O)c[nH]c2=O)c1`, the kinase still bound, per cent of control in experiment [12] worked out at 6.6%; in [13], 25%.
Consider `O=C1NC(=S)S/C1=C\c1ccc(-c2cncc3ccccc23)o1`, for which the figures for the kinase still bound, per cent of control in experiment [14] and in experiment [15] were 7.9% and 24%, respectively.
In the case of `N=C1NC(=O)/C(=C/c2ccc(-c3cncc4ccccc34)o2)S1`, the kinase still bound, per cent of control came to 29% in [12]; 8.1% in experiment [16]; 11% in experiment [14]; 13% in experiment [17]; 25% in experiment [10]; 26% in experiment [18]. Further, the kinase still bound, per cent of control in experiment [19] was determined as 31%; in [20], 21%; in [3], 32%; in [21] it was 26%.
As to `CS(=O)(=O)Nc1ccc(-c2ncc(/C=C3\SC(=N)NC3=O)s2)cc1`, the kinase still bound, per cent of control came out at 1.4% in experiment [7]; 4.6% in experiment [22]; 3.4% in experiment [20]; 20% in experiment [23]; 26% in experiment [21].
On to `N=C1NC(=O)/C(=C/c2c[nH]c(=O)c(-c3ccc(N4CCNCC4)nc3)c2)S1`, for which the kinase still bound, per cent of control in [16] is 0.1%; in experiment [24] it was 3.4%.
For `CS(=O)(=O)Nc1ccc(-c2cc(/C=C3\SC(=N)NC3=O)c[nH]c2=O)cc1`, the kinase still bound, per cent of control was 32% in experiment [16]; 32% in [24]; 15% in experiment [10]; 15% in [3]; 8% in [21].
